Consider 21 molecules from patent US5366982A (priority 1990, dated 1994).

Sequence of leukotriene B4 receptors (H0VYV8 1-348): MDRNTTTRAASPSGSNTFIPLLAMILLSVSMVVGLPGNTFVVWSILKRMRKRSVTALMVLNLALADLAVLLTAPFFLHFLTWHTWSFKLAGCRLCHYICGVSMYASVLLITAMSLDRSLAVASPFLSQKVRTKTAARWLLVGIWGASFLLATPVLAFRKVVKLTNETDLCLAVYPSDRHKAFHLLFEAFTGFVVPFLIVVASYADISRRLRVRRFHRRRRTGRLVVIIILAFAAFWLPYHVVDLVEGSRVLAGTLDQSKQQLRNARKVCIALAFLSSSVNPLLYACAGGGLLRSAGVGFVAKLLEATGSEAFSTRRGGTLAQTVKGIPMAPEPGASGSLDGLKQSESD

One experiment concerns the target leukotriene B4 receptors (Cavia porcellus, UniProt H0VYV8). Briefly: biochemical. Format: binding, guinea-pig. To be noted: Table XIX; guinea-pig spleen membranes, tritium-labelled LTB4; read-out: IC50 Binding (Cheng).
`CN(C)c1ccc(-c2cc(OCCCCC(C)(C)C(=O)O)nc3ccccc23)cc1` [2,2-dimethyl-6-{[4-(4-dimethylaminophenyl)-2-quinolyl]oxy}hexanoic acid]: the IC50 (in general, the concentration that gives 50% inhibition) turned out to be 30 nM.

For the molecule `c1ccc(-c2cc(OCCCCCc3nnn[nH]3)nc3ccccc23)cc1` [5-{5-[(4-phenyl-2-quinolyl)oxy]pentyl}-[1H]-tetrazole], the IC50 was 500 nM.

Consider `CCC(CCCCOc1cc(-c2ccc(Cl)cc2)c2ccccc2n1)C(=O)O` (stereo not drawn) [2-ethyl-6-{[4-(4-chlorophenyl)-2-quinolyl]oxy}hexanoic acid], for which the IC50 came out at 200 nM.

In the case of `O=C(O)CCCCCOc1cc(-c2ccc([N+](=O)[O-])cc2)cc(-c2ccccc2)n1` [6-{[4-(4-nitrophenyl)-6-phenyl-2-pyridyl]oxy}hexanoic acid], the IC50 was 50 nM.

As for `CC(C)(CCCCOc1cc(-c2ccccc2)c2cc(Cl)ccc2n1)C(=O)O` [2,2-dimethyl-6-[(6-chloro-4-phenyl-2-quinolyl)oxy}hexanoic acid], the 50% inhibitory concentration (IC50) was 2500 nM.

`O=C(O)CCCCCOc1cc(-c2ccc(NC(=O)C(F)(F)F)cc2)cc(-c2ccccc2)n1` [6-{[4-(4-trifluoroacetamidophenyl)-6-phenyl-2-pyridyl]oxy}hexanoic acid]: the IC50 was determined as 150 nM.

On to `Cc1cc(-c2ccccc2)cc(OCCCCC(C)(C)C(=O)O)n1` [6-[(6-methyl-4-phenyl-2-pyridyl)oxy]-2,2-dimethylhexanoic acid], for which the IC50 is 10 nM.

In the case of `O=C(O)CCCCCCCOc1ccc(-c2ccccc2)c(-c2ccccc2)n1`, the IC50 came out at 10000 nM.

For `O=C(O)CCCCCOc1cc(-c2ccc(NC(=O)c3ccccc3)cc2)cc(-c2ccccc2)n1` [6-{[4-(4-benzamidophenyl)-6-phenyl-2-pyridyl]oxy}hexanoic acid], the IC50 amounted to 4000 nM.

Turning to `Cc1ccc2c(-c3ccccc3)cc(OCCCCC(C)(C)C(=O)O)nc2c1` [2,2-dimethyl-6-[(7-methyl-4-phenyl-2-quinolyl)oxy]hexanoic acid], the IC50 came to 2000 nM.

Turning to `O=C(O)CCCCC=Cc1cccc(Cc2ccccc2)c1` [7-(3-benzyl-phenyl)6-heptenoic acid, 7-(3-benzyl-phenyl)-6-heptenoic acid], the IC50 stood at 10000 nM.

Turning to `Cc1cccc(-c2cc(OCCCCC(C)(C)C(=O)O)nc3ccccc23)c1` [2,2-dimethyl-6-{[4-(3-tolyl)-2-quinolyl]oxy}hexanoic acid], the IC50 amounted to 3500 nM.

`O=C(O)CCCCCOc1cc(-c2ccc(Cl)cc2)c2ccccc2n1` [6-{[4-(4-chlorophenyl)-2-quinolyl]oxy}hexanoic acid]: the IC50 was 30 nM.

In the case of `CC(C)(CCCCOc1cc(-c2ccc(F)cc2)c2ccccc2n1)C(=O)O` [2,2-dimethyl-6-{[4-(4-fluorophenyl-2-quinolyl]oxy}hexanoic acid], the IC50 turned out to be 150 nM.

As for `O=C(O)CCCCCCCSc1nc(-c2ccccc2)c2ccccc2n1`, the IC50 worked out at 9000 nM.

For `O=C(O)CCCOc1cc(-c2ccccc2)cc(-c2ccccc2)n1` [4-[(4,6-diphenyl-2-pyridyl)oxy]butanoic acid], the IC50 was determined as 300 nM.

For `COc1ccc(-c2cc(OCCCCCC(=O)O)nc(-c3ccc(OC)cc3)c2)cc1` [6-{[4,6-di(4-methoxyphenyl)-2-pyridyl]oxy}hexanoic acid], the IC50 turned out to be 3000 nM.

The experiment is the same for the next values; noted with them: read-out: Binding (Cheng) % Inhibition at 10 μM.
For the molecule `O=C(O)CCCCCOc1ccc(-c2ccccc2)c(-c2ccccc2)n1` [6-[(5,6-diphenyl-2-pyridyl)oxy]hexanoic acid], the inhibition (in general, the relative decrease from the control value, in per cent) at 10 µM is 15%.

On to `O=C(O)CCCCCOc1ncc(-c2ccc(Cl)cc2)c(-c2ccc(Cl)cc2)n1` [6-[4,5-bis-(4-chlorophenyl)-2-pyrimidyloxy]hexanoic acid], for which the inhibition at 10 µM worked out at 48%.

With `O=C(CCCCCOc1cc(-c2ccccc2)c2ccccc2n1)N1CCCC1` [1-[6-(4-phenyl-2-quinolyloxy)hexanoyl]pyrrolidine], the inhibition at 10 µM came to 12%.

With `COc1ccc2nc(OCCCCCC(=O)O)cc(-c3ccccc3)c2c1` [6-[(6-methoxy-4-phenyl-2-quinolyl)oxy]hexanoic acid], the inhibition at 10 µM was found to be 30%.
